Experimental data from ChEMBL document CHEMBL1201862, “PubChem BioAssay data set” (2004).
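The compound was tested at five concentrations on cells cultured in 96-well plates, with a 48-hour exposure period. GI50: concentration for 50% inhibition of growth.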 Calls of active or inactive are those of the source. Rule as the data show it: active = GI50 up to about 1.1 µM and inactive = higher.

Assays:
Assay in all cases: NCI tumour cell line growth inhibition, 48 h
ACHN = test system: ACHN
CCRF-CEM = test system: CCRF-CEM
EKVX = test system: EKVX
HCC 2998 = test system: HCC 2998
HOP-62 = test system: HOP-62
HT-29 = test system: HT-29
IGROV-1 = test system: IGROV-1
KM12 = test system: KM12
M14 = test system: M14
MDA-MB-231 = test system: MDA-MB-231
OVCAR-4 = test system: OVCAR-4
SF-268 = test system: SF-268
SF-539 = test system: SF-539
SK-MEL-28 = test system: SK-MEL-28
SN12C = test system: SN12C
SNB-19 = test system: SNB-19
SW-620 = test system: SW-620
TK-10 = test system: TK-10
U-251 = test system: U-251

Measured: GI50

CCOC(=O)CCc1cc(=O)oc2cc(O)cc(O)c12
inactive: ACHN > 100 µM | CCRF-CEM > 100 µM | EKVX 62.5 µM | HCC 2998 52.7 µM | HOP-62 > 100 µM | HT-29 > 100 µM | IGROV-1 > 100 µM | KM12 > 100 µM | M14 > 100 µM | MDA-MB-231 > 100 µM | OVCAR-4 > 100 µM | SF-268 > 100 µM | SF-539 > 100 µM | SK-MEL-28 > 100 µM | SN12C > 100 µM | SNB-19 > 100 µM | SW-620 > 100 µM | TK-10 > 100 µM | U-251 > 100 µM

Cc1ccc(NC(=O)CSC(N)=O)cc1C
inactive: ACHN > 100 µM | CCRF-CEM > 100 µM | EKVX > 100 µM | HCC 2998 > 100 µM | HOP-62 > 100 µM | HT-29 > 100 µM | IGROV-1 > 100 µM | KM12 > 100 µM | M14 40.8 µM | MDA-MB-231 > 100 µM | OVCAR-4 > 100 µM | SF-268 > 100 µM | SF-539 43.4 µM | SK-MEL-28 > 100 µM | SN12C > 100 µM | SNB-19 > 100 µM | SW-620 > 100 µM | TK-10 > 100 µM | U-251 > 100 µM

O=C(Oc1c(Cl)cc(C2(c3cc(Cl)c(OC(=O)c4ccccc4)c(Cl)c3)CCCCC2)cc1Cl)c1ccccc1
inactive: ACHN 5.15 µM | CCRF-CEM 8 µM | EKVX 11.1 µM | HCC 2998 10.1 µM | HOP-62 12.4 µM | HT-29 14.6 µM | IGROV-1 10.6 µM | KM12 5.08 µM | M14 14.5 µM | MDA-MB-231 13.7 µM | OVCAR-4 10.9 µM | SF-268 12.6 µM | SF-539 14.3 µM | SK-MEL-28 14.7 µM | SN12C 13.2 µM | SNB-19 17.6 µM | SW-620 16.2 µM | TK-10 16.7 µM | U-251 13.8 µM

CCN(CC)CC(O)c1ccc2ccc3ccccc3c2c1 (stereo not drawn)
inactive: ACHN 14.3 µM | CCRF-CEM 23.7 µM | EKVX 14.1 µM | HCC 2998 11 µM | HOP-62 16.1 µM | HT-29 11.5 µM | IGROV-1 16.2 µM | KM12 15.4 µM | M14 16.3 µM | MDA-MB-231 14.5 µM | OVCAR-4 17.4 µM | SF-268 17.8 µM | SF-539 12.6 µM | SK-MEL-28 19.7 µM | SN12C 16.3 µM | SNB-19 14.7 µM | SW-620 18.5 µM | TK-10 15.8 µM | U-251 13.3 µM

CC(=O)OCC1OC(n2c3c(c(-c4cccc5ccccc45)c(C#N)c2=S)CCCC3)C(OC(C)=O)C(OC(C)=O)C1OC(C)=O (stereo not drawn)
inactive: ACHN > 100 µM | CCRF-CEM > 100 µM | EKVX 25.8 µM | HCC 2998 > 100 µM | HOP-62 > 100 µM | HT-29 > 100 µM | IGROV-1 > 100 µM | KM12 > 100 µM | M14 66.7 µM | MDA-MB-231 > 100 µM | OVCAR-4 > 100 µM | SF-268 > 100 µM | SF-539 > 100 µM | SK-MEL-28 > 100 µM | SN12C > 100 µM | SNB-19 > 100 µM | SW-620 > 100 µM | TK-10 > 100 µM | U-251 > 100 µM

Cn1c2ccc3cc2c(=S)c2cc(ccc21)OCCOCCOCCOCCOCCO3
inactive: ACHN > 10 µM | CCRF-CEM > 10 µM | EKVX > 10 µM | HCC 2998 > 10 µM | HOP-62 > 10 µM | HT-29 > 10 µM | IGROV-1 > 10 µM | KM12 > 10 µM | M14 > 10 µM | MDA-MB-231 > 10 µM | OVCAR-4 > 10 µM | SF-268 > 10 µM | SF-539 > 10 µM | SK-MEL-28 > 10 µM | SN12C > 10 µM | SNB-19 > 10 µM | SW-620 > 10 µM | TK-10 > 10 µM | U-251 > 10 µM

Oc1cc(-c2ccc(F)cc2)nc2ncc(Cl)cc12
inactive: ACHN > 73.1 µM | CCRF-CEM 18.7 µM | EKVX 30.3 µM | HCC 2998 58.6 µM | HOP-62 32.2 µM | HT-29 26.5 µM | IGROV-1 17.1 µM | KM12 6.17 µM | M14 26.9 µM | MDA-MB-231 > 65.5 µM | OVCAR-4 > 77.3 µM | SF-268 67 µM | SF-539 27.6 µM | SK-MEL-28 58.5 µM | SN12C > 84.1 µM | SNB-19 38 µM | SW-620 11.1 µM | TK-10 > 83.4 µM | U-251 21.7 µM
